In patent US9511120B2, “Use of the angiotensin-(1-9) peptide or derivatives thereof, use of vectors overexpressing the ACE2 enzyme that produces angiotensin-(1-9) for preparing medicaments useful for preventing, reverting, inhibiting and/or reducing hypertension and/or inducing vasodilation” (PONTIFICA UNIVERSIDAD CATÓLICA DE CHILE, priority 2012, dated 2016):
Where no end group is shown, it is not given here.

Legend:
Assay type in all cases: in vivo, rat
TGF-β mRNA = experiment: Angiotensin II infusion model: TGF-β mRNA levels in the aortic wall; conditions: angiotensin II-infused rats
Description: (§1) Rats were subjected to the model of angiotensin II infusion (Grobe et al.: Am. J. Physiol. 292: H736-42, 2007). The animals were separated randomly into the following experimental groups: controls (Sham or pseudo-operated), infused with angiotensin II (300 ng/kg min), infused with angiotensin II and angiotensin-(1-9) (300 ng/kg min and 602 ng/kg min, respectively), and then infused with angiotensin II, angiotensin-(1-9) and the angiotensin-(1-7) receptor antagonist, A779 (300 ng/kg min, 602 ng/kg min, and 100 ng/kg min, respectively). In all cases the pumps operated at a flow of 0.5 μL/h and were implanted in the right jugular vein through a catheter fitted in an intrascapular subcutaneous pocket under anesthesia with ketamine HCl/xylazine (35 and 7 mg/kg i.p., respectively), for a period of 14 days.
The procedure described by Ocaranza et al. (Hypertension 48:572-8, 2006) was followed. Briefly, total RNA was isolated from the aorta using the trizol method and quantified by spectroscopy at 260 nm/280 nm. The cDNA was obtained by reverse transcription from 1.5 μg of total RNA treated with DNAse. […] The band intensity was quantified by densitometry and normalized to the 18S ribosomal RNA band.

collagen I [1] = experiment: Angiotensin II infusion model: collagen I protein levels in the aortic wall by Western blot; conditions: angiotensin II-hypertensive rats
Description: as §1
(§2) For the determination of collagen I and TGFβ-1, 30 μg and 50 μg of total proteins were used, respectively, diluted in SDS reducing buffer (50 mM tris-HCl, pH 7.4, NP-40 10%, NaCl 1M, Na deoxycholate 5%, EDTA 10 mg/mL, SDS 10%, aprotinin 1 mg/mL, leupeptin 0.1 mg/mL, PMSF 10 mM), they were then separated by SDS-PAGE gel electrophoresis 7%, and transferred to nitrocellulose membranes of […] to 300 mA for 1 h. The transfer of proteins was monitored by Ponceau red staining. […]

collagen I [2] = experiment: Goldblatt model: collagen I protein levels in the aortic wall; conditions: GB rats
Source text: (§3) Lewis normotensive rats (weight 150±10 g), which were separated randomly into the experimental hypertension model group or GB (Ocaranza et al. J. Hypertens. 20:413-20, 2002) or control group (S) were used. The latter corresponded to pseudo-operated animals. All animals were maintained under controlled conditions of light and darkness and had free access to food and water. Four weeks after surgery and at a blood pressure above 140 mmHg, GB rats were randomized for the chronic administration of angiotensin-(1-9) through an osmotic pump (602 ng kg^−1min^−1) via the jugular vein during two weeks. The animals were euthanized after 6 weeks post-surgery.
as §2

TGFβ-1 = experiment: Goldblatt model: TGFβ-1 protein levels in the aortic wall; conditions: GB rats
Source text: as §3, §2

DRVYIHPFH was tested, and the “reduction of TGF-β mRNA levels” value (TGF-β mRNA) was 62.5%, the “prevention of the increase of collagen in the aortic wall” value (collagen I [1]) was 60% and the “reduction of the increase of collagen in the aorta wall” value (collagen I [2]) was 54%. The “decrease of TGFβ-1 levels” value (TGFβ-1) was 47%.
